{"source": "patent US8394759B2", "about": "“Transdermal delivery of medicaments with combinations of cetylated fatty ester penetrant complexes” (Cymbiotics, Inc., priority 2008, dated 2013)", "key": {"[1]": {"assay": "Permeation in the CFEP formulations", "settings": "in any of the three formulations of Example 3"}, "[2]": {"settings": "oral; cited from earlier work"}, "[3]": {"test_system": "patients", "settings": "oral formulations; cited from earlier work"}, "[4]": {"settings": "intravenous injection, 5 mg; cited from earlier work"}, "[5]": {"settings": "oral; cited from earlier work", "remark": "listed apart in the source"}, "[6]": {"settings": "free base; cited from earlier work"}, "[7]": {"test_system": "mouse skin", "assay": "Transdermal diazepam in CFEP-Complex formulation delivered to mouse skin", "type": "in vivo", "settings": "single application to mouse skin in 4-9% CFEP-Complex formulation; preliminary, 'may provide'", "method": "A formulation for transdermal delivery is a novel format for diazepam or lorazepam or clonazepam, and utilizes the lipophilic properties of each molecule. In one example diazepam is administered in 3 doses, namely 10 mg/gram, 25 mg/gram and 50 mg/gram using a 4-9% CFEP-Complex carrier formulation consisting of cetyl decanoate, cetyl laurate, cetyl myristate, cetyl myristoleate, cetyl oleate, cetyl palmitate, cetyl palmitoleate and cetyl stearate. The polar solvent used is propylene glycol (12%) in the described cream base at a pH of 6.5. A pH range of 6-7 is effective and tocopherol acetate is the antioxidant at 1%. […] The permeant is first finely emulsified in the CFEP-Complex and polar solvent prior to addition of the cream base. A single application of diazepam delivered to mouse skin in this formulation may provide pronounced activity for 5-8 hours. […] Pregabalin in a topical format is also an excellent anti-convulsant and useful in the treatment of seizure already described in examples 4 and 5 above."}, "[8]": {"test_system": "arthritic patients", "assay": "Topical cetylated fatty ester complexes with rubefacients versus placebo base, joint functionality and pain", "type": "in vivo, human", "settings": "eucalyptus oil 1% to 5%, camphor 1-7% in the carrier formulation", "text": "The composition of the invention provides for the administration of permeants with anti-arthritic properties. A topical application consisting of the cetylated fatty ester complexes in concentrations of 5% to 20% with rubefacients (such as methyl salicylate, menthol and for some variations capsaicin can be applied to affected areas of arthritic patients). The permeants were at concentrations ranging from 1-30%. The carrier formulation consisted of a penetrant group of 8 cetyl fatty esters (4-9%; cetyl decanoate, cetyl laurate, cetyl myristate, cetyl myristoleate, cetyl oleate, cetyl palmitate, cetyl palmitoleate and cetyl stearate) with propylene glycol as the polar solvent (12%), in the described cream base at a pH of 6.5. One variation of carrier formulation is also an anti-inflammatory and is used topically to treat joint pain and musculoskeletal pain and other types of pains in arthritis (Kraemer W J et al. 2004 J Rheumatology 31:767-74; Kraemer W J et al. 2005 J Strength and Conditioning Res 19: 475-80 and Sharan et al. 2009, submitted for publication), The preferred polar solvent is propylene glycol. […]"}}, "data": [{"smiles": "O=C(O)CCCCC1CCSS1", "note": "(stereo not drawn) [Alpha lipoic acid]", "values": [{"measurement": "permeation", "setting": "[1]", "value": "permeates well"}]}, {"smiles": "CC(C)C[C@H](CN)CC(=O)O", "note": "[Pregabalin]", "values": [{"measurement": "bioavailability", "setting": "[2]", "value": "more than 90%"}, {"measurement": "adverse reactions such as drowsiness and dizziness, share of the patients", "setting": "[3]", "value": "more than 10%"}]}, {"smiles": "CCN(CC)CC#CCOC(=O)C(O)(c1ccccc1)C1CCCCC1", "note": "(centres unmarked) [oxybutynin]", "values": [{"measurement": "Tmax", "setting": "[4]", "value": 15, "unit": "min"}]}, {"smiles": "C/C1=C2/[N-][C@H]([C@H](CC(N)=O)[C@@]2(C)CCC(=O)NC[C@@H](C)OP(=O)([O-])O[C@H]2[C@@H](O)[C@@H](n3cnc4cc(C)c(C)cc43)O[C@@H]2CO)[C@]2(C)N=C(/C(C)=C3N=C(/C=C4N=C1[C@@H](CCC(N)=O)C\\4(C)C)[C@@H](CCC(N)=O)[C@]\\3(C)CC(N)=O)[C@@H](CCC(N)=O)[C@]2(C)CC(N)=O.[CH3-].[Co+3]", "note": "[methylcobalamin]", "values": [{"measurement": "rate of absorption by passive diffusion", "setting": "[5]", "value": "1-2 % of the ingested material"}]}, {"smiles": "CNC1(c2ccccc2Cl)CCCCC1=O", "note": "(centres unmarked) [Ketamine, 2-(2-chlorophenyl)-2-(methylamino)-cyclohexanone]", "values": [{"measurement": "lipid solubility", "setting": "[6]", "value": "10 times that of thiopentone"}]}, {"smiles": "CN1C(=O)CN=C(c2ccccc2)c2cc(Cl)ccc21", "note": "[diazepam]", "values": [{"measurement": "duration of pronounced activity", "setting": "[7]", "value": "5 to 8", "unit": "h"}]}, {"smiles": "CC12CCC(CC1=O)C2(C)C", "note": "(centres unmarked) [camphor]", "values": [{"measurement": "other rubefacients found to be effective", "setting": "[8]", "value": "effective"}]}]}
